Where a SMILES comes first, the peptide text is derived from it. Where no end group is shown, it is not given here. [ ]: non-standard residue; d: D form. Oic = O=C(O)[C@@H]1C[C@@H]2CCCC[C@@H]2N1
Columns and labels:
[1] = tested on: CHO cells, empty vector; test: Negative control, CHO cells transfected with the empty vector; type: cell-based, Chinese hamster; settings: 10 µM
Description: The receptor was also tested with a variety of peptide analogs and peptidomimetics.
(§1) Approximately thirty hours after transfection, the cells were collected and preincubated with coelenterazine h for the functional assay, as previously described[30],[31],[52]. The ligands in serial dilutions were loaded into 96-well opaque plates. Cells treated with coelenterazine h were injected into each well on an Orion microplate luminometer (Berthold) luminescent plate reader. The luminescence was measured for 20 s immediately after the cell injections. Data analyses were performed to determine the accumulated luminescence value for 20 s after extraction of blank-well luminescence. A dose–response curve was generated and the EC50 (50% effective concentration) was calculated in Origin 7 (OriginLab) as described in Jiang et al.[31],[53]. The three biological replications were regressed for the dose–response curves with 95% confidence intervals (Table 1). For the tests of the second set of ligands, we used the cell line that stably expressed VdProctR, which were selected by Zeocin for 5 passages.

[2] = tested on: honey bee FMRFamide receptor; test: Activity on honey bee FMRFamide receptor expressed in CHO cells; type: cell-based, Apis mellifera
Description: as §1, with “Honey bee FMRFamide receptor was cloned and expressed in the same system as described for the proctolin receptor. […] Approximately” for “Approximately”, “A dose–response curve was generated and the EC50 (50% effective concentration) was calculated in Origin 7 (OriginLab) as described in Jiang et al.[31],[53].” left out, “dose-response” for “dose–response”

[3] = tested on: Bombyx mori larval gut; settings: cited from earlier work
[4] = tested on: honey bee queen; settings: injection, 1 µL containing 1 µg; cited from earlier work
[5] = biological target: Varroa mite proctolin receptor (VdProctR) (Varroa destructor, UniProt A0A7T1TE40); test: Receptor activity assay (aequorin luminescence), CHO cells transiently expressing the receptor, first set of ligands; type: cell-based; settings: activities at 1 μM and 10 μM
Sequence of Varroa mite proctolin receptor (VdProctR) (A0A7T1TE40 entry or part of it): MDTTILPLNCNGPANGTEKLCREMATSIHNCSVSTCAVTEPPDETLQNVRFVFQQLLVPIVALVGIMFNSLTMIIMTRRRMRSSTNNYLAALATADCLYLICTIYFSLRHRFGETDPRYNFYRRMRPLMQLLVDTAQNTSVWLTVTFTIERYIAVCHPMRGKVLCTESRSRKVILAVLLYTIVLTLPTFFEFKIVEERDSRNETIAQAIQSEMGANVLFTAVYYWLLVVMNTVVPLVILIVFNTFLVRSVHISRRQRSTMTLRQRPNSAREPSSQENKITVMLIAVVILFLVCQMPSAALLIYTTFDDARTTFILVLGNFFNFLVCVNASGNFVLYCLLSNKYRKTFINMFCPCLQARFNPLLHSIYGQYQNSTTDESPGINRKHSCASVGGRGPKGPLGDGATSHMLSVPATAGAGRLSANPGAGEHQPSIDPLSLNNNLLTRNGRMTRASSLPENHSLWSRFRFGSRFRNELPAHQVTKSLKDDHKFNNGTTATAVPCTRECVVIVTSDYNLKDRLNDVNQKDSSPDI
Description: as §1, with “A dose–response curve was generated and the EC50 (50% effective concentration) was calculated in Origin 7 (OriginLab) as described in Jiang et al.[31],[53].” left out

[6] = tested on: Varroa mites; test: Varroa mite feeding assay (drop on gnathosoma), paralysis/death; type: in vivo, Varroa destructor; settings: 48 h; 200 nL on gnathosoma; 0.1 nM (methods) / 0.01 nM (Fig. 4 legend)
Description: In the continued bioassay, the toxicities were assessed by counting paralysis/death in feeding assay. A drop of 200 nL solution was placed on the gnathosoma of an immobilized mite for forced feedings of active components. Low levels of acute toxicities of peptidomimetics were indicated by lower than 50% effects within 6 h after the treatments. The toxic effects were increased over time and reached 100% of the effects in the 48 h treatments of 2336 (Fig. 4, ANOVA p < 0.05). In H2O control, about 10% or less of the number of individuals were paralyzed/dead. Accurate cause of the paralysis/death remains yet to be studied.
Adult female Varroa mites were collected using a sugar roll method from honey bee hives located at the East Campus apiary of the University of Nebraska (Lincoln, NE USA) in September–October 2019. The hives were not treated with chemicals for honey bee parasites or pathogens. The mites were sorted in the laboratory with a paint brush and tested within 4 h post collection. […] The number of affected (i.e., dead and/paralyzed) was observed and recorded at 1, 2, 6, 12, 24, and 48 h. The percent effect for each treatment was analyzed using a one-way analysis of variance (ANOVA) with a Tukey’s post-hoc test (GraphPad Prism, La Jolla, CA; p < 0.05).

RYLPT [Proctolin, RYLPT]
activity on empty-vector transfected cells [1]: did not show any activity
activity on honey bee FMRFamide receptor [2]: no activities
concentration required for hindgut contraction ([3]; Bombyx mori larval hindgut): 180 µM
concentration required in the midgut to slightly reduce leucine uptake ([3]; Bombyx mori larval midgut): 10 µM
effect on egg-laying activity of the queen [4]: increased the egg-laying activity

CC(C)C[C@H](NC(=O)[C@H](Cc1ccc(O)cc1)NC(=O)[C@@H](N)CCCNC(=N)N)C(=O)N1[C@H](C(=O)N[C@H](C(=O)O)[C@@H](C)O)C[C@@H]2CCCC[C@@H]21 [Analog 2336, RYL[Oic]T] (H-RYL[Oic]T-OH; N-terminus and C-terminus assumed)
efficacy (maximal response) compared with proctolin [5]: higher than that of proctolin
effects (paralyzed or dead mites) [6]: 100%

Reference: paper PMC9568543, “Bee-safe peptidomimetic acaricides achieved by comparative genomics” (Scientific Reports, 2022)
